Measured values published in patent US6432883B1, “Methods of treating plants with glycolic acid” (Emerald BioAgriculture Corporation, priority 2000, dated 2002).
Marks after values point to notes of the source that are not given here.

Legend:
Format in all cases: in vivo
[1] = tested on: Erysiphe graminis/Ooidium; assay: Wheat pathogen stress: disease index on leaves and heads; conditions: for Disease Index Heads / Disease Index Leaves: wheat, (1-7 severity rating)(% incidence)/100
Procedure: Kulm wheat seed, lot CR, was purchased from Albert Lea Seed House, Albert Lea, Minn. and grown 100 plants per 1 gallon pot, 3 pots per experimental unit and 1 experimental unit per each of 6 replications. The plants were spray-treated first at late-tillering to jointing and again at “in boot” to anthesis with 8 ml solution per pot. Aerial application of the pathogen stress (Erysiphe graminis/Ooidium conidia cultured on other Kulm wheat plants infected by incoming natural inoculum) was made to the plants at 14 days following the first treatment application, in addition to other naturally occurring inoculum.
Treatments consisted of non-inoculated and inoculated groups of non-treated (NTC), water and 0.05% surfactant-blank (SB) controls and 5, 25, and 50 ppm of glycolic acid.
Disease assessment was made 3 days prior to head harvesting using a 1-7 based severity scale and % incidence. A disease index [(1-7 based severity rating)(% incidence)/100] was created to better describe the compound effect. The results in Table 3 below show the data for each treatment and the rating scale definitions.

Bottytis cinerea = assay: Excised lettuce leaves, post-harvest pathogen stress: radius of colonized tissue; conditions: for Average Disease Progression: radius of colonized tissue 3 days post-inoculation
Procedure: Waldmann's MTO dark green Grand Rapids leaf lettuce seed, lot# 15529, was purchased from Johnny's Selected Seeds, Albion, Me., and grown 8 plants per 1 gallon pot. Circular steel-blue blotter papers (Anchor Paper Co, St. Paul, Minn.) were steam autoclaved and fitted into disposable petri dishes. […]
Blotters were saturated with 4.5 ml sterile tap water. Individual leaves (20) were excised and placed into a treatment solution for 5-10 seconds or left non-treated. Excess fluid was removed from the leaf surface. These leaves were then placed singly, 1 leaf per dish and adaxial side up, on the moist blotters. Dish lids were replaced and dishes stacked, bagged and returned to the petri dish box for 24 hour dark storage at room temperature (65-68° F.).
Inoculum (Bottytis cinerea) was grown on potato dextrose agar (PDA) plates until dense conidia production was present. These were blended into a paste with non-inoculated PDA and sterile tap water. Inoculum concentration was determined by dilution plating to be 1960 cfu/ml.
A small spot of inoculum paste was dotted onto the center of 16 of the 20 leaf pieces per treatment stack 24 hours after test substance application.
Disease progression assessment was made at 3 days±2 hours post-inoculation by measuring the radius of colonized tissue in mm.

cabbage [2] = assay: Cabbage cold shock and heat treatment: fresh and dry weights; design: Avg. Fresh Weights ± SD / Avg. Dry Weights ± SD: unit not given here
Text: Seeds of Heads Up cabbage were obtained from Harris Seeds, Rochester, N.Y. and grown in 7″×5¼″×2¼″ (17.78 cm×13.34×5.72 cm) Kord inserts (Park Seeds, Greenwood, S.C.) containing Bacto potting soil (Michigan Peat Company, Houston, Tex.). After plants had germinated, cabbage seedlings were thinned to six plants per insert. Inserts were kept in 12″×8¾″ (30.48 cm×22.23 cm) perma nest trays (Park Seed) with two inserts per tray. Each treatment consisted of three replicate trays containing a total of eighteen cabbage plants. After 12 days, some of the plant were sprayed with Glypure® at 25 ppm, 100 ppm, and 200 ppm. Treated plants were given a second application of Glypure® 7 days later. Untreated and treated plants were subjected to freeze and heat shock treatments 24 hours later. Cold shock was administered by exposing plants to −3° C. for 2 hours and 20 minutes. Heat treatment was provided by placing plants in an oven for 5 hours at 46.5° C. One week following the temperature treatments, the plants were harvested and the fresh and dry weights were determined.

cabbage [3] = assay: Cabbage drought stress: fresh and dry weights; conditions: drought, water withheld 13 days, 5, 15, 50 ppm
Procedure: Market Prize, F1 cabbage seed, lot 88955, as described in example 7, was treated identically as in example 7, except that drought stress was imposed by withholding water 7 days following the second spray and continuing to withhold water for 13 sequential days thereafter. Drought tolerance was assessed by measuring both the fresh and dried weights of the plants.

[4] = Cold Stress (−3° C., 2 hours 20 minutes), 25 ppm
[5] = Cold Stress (−3° C., 2 hours 20 minutes), 200 ppm
[6] = Heat Stress (46.5° C., 5 hours), 25 ppm
[7] = Heat Stress (46.5° C., 5 hours), 200 ppm

For O=C(O)CO [glycolic acid], the “disease severity observed in wheat heads versus control wheat” value ([1]; 5 ppm and 25 ppm, α=0.05) was “statistically significant (α=0.05) decrease”, the “Disease Index Heads” value ([1]; 5 ppm spray) was 2.5* and the “Disease Index Leaves” value ([1]; 5 ppm spray) was 7.6*. The “Disease Index Heads” value ([1]; 25 ppm spray) was 13.4*, the “Disease Index Leaves” value ([1]; 25 ppm spray) was 7.0* and the “Disease Index Heads” value ([1]; 50 ppm spray) was 18.6*. For the same molecule, the “Disease Index Leaves” value ([1]; 50 ppm spray) was 36.9, the “disease severity in wheat leaves versus control wheat” value ([1]; all glycolic acid treated wheat, α=0.05) was “statistically significant (α=0.05) decrease” and the “Average Disease Progression” value (Bottytis cinerea; 10 ppm leaf dip) was 4.0* mm. The “disease severity versus control lettuce” value (Bottytis cinerea; 10 ppm, lettuce leaves, α=0.05) was “statistically significant (α=0.05) decrease”, the “Average Disease Progression” value (Bottytis cinerea; 25 ppm leaf dip) was 9.8 mm and the “Average Disease Progression” value (Bottytis cinerea; 75 ppm leaf dip) was 9.4 mm. For the same molecule, the “Average Disease Progression” value (Bottytis cinerea; 150 ppm leaf dip) was 13.6 mm, the “Average Disease Progression” value (Bottytis cinerea; 500 ppm leaf dip) was 12.1 mm and the “Average Disease Progression” value (Bottytis cinerea; 1000 ppm leaf dip) was 11.6 mm. The “reduction in fresh and dry weights caused by the adverse temperatures, versus untreated plants” value (cabbage [2]; 200 ppm) was “statistically significantly lower”, the “Avg. Dry Weights ± SD” value (cabbage [2]; [4]) was 3.1 ± 0.1 and the “Avg. Fresh Weights ± SD” value (cabbage [2]; [4]) was 28.6 ± 2.7. For the same molecule, the “Avg. Dry Weights ± SD” value (cabbage [2]; [5]) was 3.2 ± 0.2, the “Avg. Fresh Weights ± SD” value (cabbage [2]; [5]) was 31.4 ± 1.3 and the “Avg. Dry Weights ± SD” value (cabbage [2]; [6]) was 2.5 ± 0.3. The “Avg. Fresh Weights ± SD” value (cabbage [2]; [6]) was 10.2 ± 2.6, the “Avg. Dry Weights ± SD” value (cabbage [2]; [7]) was 3.5 ± 0.1 and the “Avg. Fresh Weights ± SD” value (cabbage [2]; [7]) was 15.2 ± 0.6. The “fresh weight of the cabbage compared to controls” value (cabbage [3]; FIG. 3) was “statistically significantly increased” and the “dry weight of the cabbage compared to controls” value (cabbage [3]; FIG. 4) was “statistically significantly increased”.
